# Columns and labels:
# TNF-α = TNF-α release from keratinocytes by ELISA; format: cell-based, human; conditions: 24 hours after UVB irradiation
# Description: (§1) UV-B radiation was delivered with a battery of lamps (TL 20W/12RS UV-B Philips Medical) before and after treatment with diacerein.
# (§2) In other experiments, UVB irradiation was delivered only after diacerein addition.
# (§3) Before irradiation, the cells were washed once with PBS and irradiated in presence of PBS.
# (§4) Controls were sham irradiated for identical periods as measured by International Light Research Radiometer (Newburyport, Mass.).
# (§5) Quantitation of cytokine levels was performed by a quantitative two-site enzyme immunoassay according to manufacturer's instructions, using ELISA kits for IL-1, IL-6, IL-8 and TNF-α.
# (§6) The sample concentration was determined by absorbance at 450 nm with the correction wavelength set at 540 nm.
# As mentioned above, TNF-α is of great relevance in the pathomechanisms of psoriasis. Therefore, we wanted to evaluate the effect of diacerein on the release of this cytokine from human keratinocytes.
# [1] = test system: patients with mild to moderate psoriatic arthritis; experiment: Clinical trial of Artrodar (diacerein) in psoriasis with mild to moderate psoriatic arthritis; format: in vivo, human; conditions: for Ritchie articular index, hip sx: baseline Ritchie 2
# Description: The aim of this study was to assess the efficacy and safety of diacerein in the treatment of psoriasis with mild to moderate psoratic arthritis.
# The investigational drug, Artrodar® (Laboratoire Medidom S. A. (Geneva)), is a size 1 hard gelatin capsule.
# Ten patients satisfying all the inclusion and exclusion criteria indicated below were tested.
# Male or female patients over 18 years of age with • cutaneous involvement defined by the psoriasis area and severity index (PASI) (<15); • persistent negative latex test or ELISA for rheumatoid factors; • established diagnosis of mild to moderate severity psoriatic arthritis of at least 3 months duration characterized by oligoarthritis (<4 involved joints) and/or spondyloarthritis; • normal values for haematology and clinical chemistry values (ESR 1 h<30 mm, WBC with leucocyte differential count, RBC, Hb ([…]), platelets, creatinine, transaminases, alkaline phosphatase, bilirubin); • normal or drug-controlled blood pressure values; • failure to respond to topical (including emollients and coal tar) and phototherapy; • evidence of medically approved contraceptive methods in women of childbearing age; • written informed consent from each patient;
# Exclusion criteria: • patient under 18 years of age; • positive rheumatoid factor (RF) or antinuclear antibodies (ANA) >1:80; • history of inflammatory bowel disease or evidence of another rheumatologic disorder; • ascertained individual sensitivity to diacerein or any of the components in the capsule; • chronic illness that, in the opinion of the Investigator, would limit successful participation in the trial; • treatment with slow acting drugs and/or corticosteroids during the month prior to study start; • patient who, in the judgement of the Investigator, […]. Treatment
# Treatment was 2×50 mg capsules of Artrodar® (each capsule contains 50 mg diacerein) taken orally per day for 6 months.
# One capsule was to be taken in the afternoon after lunch while the other was to be taken in the evening after dinner.
# No slow acting disease modifying drugs for psoriatic arthritis or corticosteroids were allowed during one month prior to the start of the study and throughout the study.
# Treatment with NSAIDs, analgesics and other drugs was kept constant during the study and the doses used were recorded every week.
# The following were assessed at baseline and at regular intervals during the study: • The PASI index (Fredriksson and Petterson, 1978)^i for assessing cutaneous involvement. • Pain on activity (target joint) assessed using the VAS. • Ritchie articular index.
# All adverse events either observed by the Investigator or reported by […] were recorded.
# IL-1 = IL-1 release from keratinocytes by ELISA; format: cell-based, human
# Description: as §1, §2, §3, §4, §5, §6
# IL-1 is constitutively expressed in human keratinocytes. IL-1 release was measured after the addition of increasing doses of diacerein.
# prostaglandin PGE2 = conditions: cited from earlier work
# IL-6, TNF-α and LIF = conditions: prior knowledge; cited from earlier work
# [2] = cited from earlier work
# IL-8 = IL-8 release from keratinocytes by ELISA; format: cell-based, human
# Description: as §1, §2, §3, §4, §5, §6
# As TNF-α is a potent inducer of IL-8 in keratinocytes and plays an important role in the pathogenesis of psoriasis, the effect of diacerein on IL-8 was also evaluated after stimulating keratinocytes with TNF-α.
# IL-6 = IL-6 release from keratinocytes by ELISA; format: cell-based, human
# Description: as §1, §2, §3, §4, §5, §6
# No constitutive levels of IL-6 are normally detected in human keratinocytes.
# Therefore, IL-6 release was stimulated by UVB irradiation.
# [3] = test system: cytokines of the IL-1 family, especially IL-1β; conditions: prior knowledge; cited from earlier work
# [4] = of 7 patients, 2×50 mg orally per day
# [5] = patient one, 2nd visit, improved from Ritchie 1
# [6] = patient three, 2nd visit, improved from Ritchie 2
structure (smiles),measurement,setting,value
"CC(=O)Oc1cccc2c1C(=O)c1c(OC(C)=O)cc(C(=O)O)cc1C2=O [diacerein, 4,5-bis(acetyloxy)-9,10-dihydro-9,10-dioxo-2-anthracene carboxylic acid]",doses down-regulating UVB-induced TNF-α release,TNF-α,50 to 200 µM
same,adverse effect reported,"[1]; all treated patients, caused drop-out",diarrhea in one patient
same,number of patients who responded after 1 month,[1]; [4],4 patients
same,number of patients who responded after 2 months,[1]; [4],2 patients
same,number of patients who responded after 3 months,[1]; [4],1 patients
same,psoriasis status,"[1]; patient five, 2nd visit Jul. 14, 2000, 1 month treatment, baseline PASI 10.1",Psoriasis: status unchanged.
same,Pain on VAS,"[1]; patient five, 2nd visit, baseline 60 mm",Pain on VAS = 50 mm
same,"Ritchie articular index, knee pain (bilateral)","[1]; patient five, 2nd visit, baseline Ritchie 1",had knee pain (bilateral) (Ritchie 1).
same,Responder,"[1]; patient five, treatment period only 1 month",No as
same,Responder,[1]; patient four,Yes
same,PASI score,"[1]; patient four, 2nd visit Jul. 13, 2000, baseline 13.6",PASI score = 6.7
same,Pain on VAS,"[1]; patient four, 2nd visit, baseline 50 mm",Pain on VAS = 50 mm.
same,"Ritchie articular index, shoulder sx","[1]; patient four, 2nd visit, baseline Ritchie 1",Shoulder sx: Unchanged
same,"Ritchie articular index, hip sx","[1]; patient four, 2nd visit",Hip sx: Unchanged
same,"Ritchie articular index, TMC dx","[1]; patient four, 2nd visit, improved from Ritchie 1",TMC dx: Improved from Ritchie 1 to 0
same,PASI score,"[1]; patient four, 3rd visit Aug. 30, 2000, baseline 13.6",PASI score = 2.2
same,Pain on VAS,"[1]; patient four, 3rd visit, baseline 50 mm",Pain on VAS = 50 mm.
same,"Ritchie articular index, shoulder sx","[1]; patient four, 3rd visit, baseline Ritchie 1",Shoulder sx: Unchanged
same,"Ritchie articular index, hip sx","[1]; patient four, 3rd visit",Hip sx: Unchanged
same,"Ritchie articular index, TMC dx","[1]; patient four, 3rd visit, improved from Ritchie 1",TMC dx: Improved from Ritchie 1 to 0
same,Responder,[1]; patient one (stopped after 4 weeks),Yes
same,PASI score,"[1]; patient one, 2nd visit Aug. 18, 2000, after stopping treatment in mid-July and mild return, baseline 4.8",PASI score = 2.4
same,"Ritchie articular index, TMC sx",[1]; [5],TMC sx improved from Ritchie 1 to 0
same,"Ritchie articular index, shoulder sx",[1]; [5],Shoulder sx: improved from Ritchie 1 to 0
same,"Ritchie articular index, tibiotarsal joint sx","[1]; patient one, 2nd visit, improved from Ritchie 2",Tibiotarsal joint sx: improved from Ritchie 2 to 0.
same,Responder,[1]; patient seven,Yes
same,PASI score,"[1]; patient seven, 2nd visit Jun. 6, 2000, baseline 9.6",PASI score = 6.6
same,Pain on the VAS,"[1]; patient seven, 2nd visit, baseline 60 mm",Pain on the VAS = 50 mm.
same,PASI score,"[1]; patient seven, 3rd visit Jul. 3, 2000, baseline 9.6",PASI = score 5.0
same,Pain on the VAS,"[1]; patient seven, 3rd visit, baseline 60 mm",Joint swelling decreased in all joints. Pain on the VAS = 40 mm.
same,PASI score,"[1]; patient seven, 4th visit Aug. 18, 2000, baseline 9.6",PASI score = 0.9
same,Responder,[1]; patient six,Yes
same,psoriasis status,"[1]; patient six, 2nd visit, after 2 months treatment, baseline PASI 8.1",disappeared in June.
same,PASI score,"[1]; patient six, 3rd visit Jul. 19, 2000 (psoriasis reappeared), baseline 8.1",PASI score = 3.9
same,"Ritchie articular index, right knee","[1]; patient six, 4th visit, baseline Ritchie 3",0
same,Pain on the VAS,"[1]; patient six, right knee, 3rd visit, baseline 50 mm",VAS = 50 mm.
same,pain (VAS),"[1]; patient six, right knee, 4th visit Aug. 29, 2000, baseline 50 mm",1 cm
same,Responder,[1]; patient three,Yes
same,PASI score,"[1]; patient three, 2nd visit Jul. 20, 2000, baseline 6.9",PASI score = 6.9
same,"Ritchie articular index, wrist dx",[1]; [6],Wrist dx: improved from Ritchie 2 to 1.
same,"Ritchie articular index, wrist sx",[1]; [6],Wrist sx: improved from Ritchie 2 to 0
same,"Ritchie articular index, wrist sx","[1]; patient three, 3rd visit",Wrist sx: Ritchie 0
same,Morning stiffness,"[1]; patient three, 3rd visit Aug. 24, 2000",Morning stiffness = 30 minutes.
same,PASI score,"[1]; patient three, 3rd visit Aug. 24, 2000, baseline 6.9",PASI score = 3.9
same,"Ritchie articular index, wrist dx","[1]; patient three, 3rd visit, improved from Ritchie 1",Arthritis: Wrist dx: improved from Ritchie 1 to 0.
same,Responder,"[1]; patient two (stopped after 1 month, diarrhea)",Yes
same,PASI score,"[1]; patient two, 2nd visit Jul. 20, 2000, baseline 0.6",PASI score = 0.1
same,"Ritchie articular index, 2nd MCF dx","[1]; patient two, 2nd visit, printed as improved from Ritchie 1, baseline Ritchie 2","Arthritis: 2nd MCF, dx, improved from Ritchie 1 to Ritchie 0."
same,patients who responded to treatment (improvement on PASI score),"[1]; seven patients who took Diacerein one month or more, 2×50 mg capsules orally per day",100%
same,effect on UVB-induced increase in IL-1 release,IL-1; 24 hours after UVB irradiation,prevented this effect
same,dose down-regulating IL-1 release almost to baseline levels,IL-1; UVB-irradiated keratinocytes,0.1 µM
same,effect of timing of administration on IL-1 release,IL-1; before versus after UVB irradiation,more powerful when administered before UVB irradiation
same,effect on constitutive levels of IL-1,"IL-1; normal conditions, no UVB",did not affect
same,gastrotoxic potential,prostaglandin PGE2; inferred from no effect on PGE2 production,does not have gastrotoxic potential
same,effect on prostaglandin PGE2 production,prostaglandin PGE2; prior knowledge,not to effect prostaglandin PGE2 production
same,effect on IL-6 and other cytokines such as TNF-α and LIF,"IL-6, TNF-α and LIF",inhibit IL-6 and other cytokines such as TNF-α and LIF
same,carcinogenic potential,[2]; extensive toxicology studies,does not show carcinogenic potential
same,tolerability,"[2]; prior use in osteoarthritis and rheumatoid arthritis, toxicology studies",well tolerated
same,doses with significant reduction of UVB-induced IL-8 levels,IL-8; 24 hours after UVB irradiation,5 to 100 µM
same,effect of timing of addition on IL-8 release,IL-8; UVB-irradiated keratinocytes,more effective when given both before and after UVB irradiation
same,doses down-regulating TNF-α-induced IL-8 release,"IL-8; keratinocytes stimulated with TNF-α, 24 hours",50 to 200 µM
same,effect on IL-8,"IL-8; normal conditions, no stimulus",unaffected
same,effect on UVB-induced IL-6 release,IL-6; 24 hours after irradiation,caused a reduction
same,effect of timing of addition on IL-6 release,IL-6; UVB-irradiated keratinocytes,significantly more effective when added both before and after UVB light
same,dose giving significant reduction in IL-6 release,IL-6; added both before and after UVB,1 µM
same,dose necessary for down regulation of IL-6,IL-6; administered only before UVB,5 µM
same,effect on IL-6 levels,"IL-6; basic conditions, no UVB",did not affect
same,"effect on synthesis and activity of pro-inflammatory catabolic cytokines of the IL-1 family, especially IL-1β",[3],inhibit the synthesis and activity

# — patent US6844365B2, “Substances for use in treating psoriasis” (Laboratoire Medidom S.A., priority 2000, dated 2005)
